# Reference: PubChem BioAssay (NCI)
#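 The compound was tested at five concentrations on cells cultured in 96-well plates, with a 48-hour exposure period. GI50: concentration for 50% inhibition of growth. TGI denotes the concentration required for complete inhibition of growth.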
# Assays:
# Assay in all cases: NCI tumour cell line growth inhibition, 48 h
# CCRF-CEM leukemia = test system: CCRF-CEM leukemia
# KM12 colon = test system: KM12 colon
# SK-MEL-5 melanoma = test system: SK-MEL-5 melanoma
# A549 NSCLC = test system: A549 NSCLC
# NCI-H522 lung = test system: NCI-H522 lung
# DU-145 prostate = test system: DU-145 prostate
# HS 578T breast = test system: HS 578T breast
# MDA-MB-231 breast = test system: MDA-MB-231 breast
# U251 CNS = test system: U251 CNS
# SNB-19 CNS = test system: SNB-19 CNS
# HOP-62 NSCLC = test system: HOP-62 NSCLC
# MCF7 breast = test system: MCF7 breast
# SK-OV-3 ovarian = test system: SK-OV-3 ovarian
# SF-268 CNS = test system: SF-268 CNS
# MALME-3M melanoma = test system: MALME-3M melanoma
# HCC-2998 colon = test system: HCC-2998 colon
# SNB-75 CNS = test system: SNB-75 CNS
# K-562 leukemia = test system: K-562 leukemia
# SF-539 CNS = test system: SF-539 CNS
# HOP-92 NSCLC = test system: HOP-92 NSCLC
# RXF 393 renal = test system: RXF 393 renal
# HL-60(TB) leukemia = test system: HL-60(TB) leukemia
# SK-MEL-28 melanoma = test system: SK-MEL-28 melanoma
# MDA-MB-435 = test system: MDA-MB-435
# HCT-116 colon = test system: HCT-116 colon
# SF-295 CNS = test system: SF-295 CNS
# EKVX NSCLC = test system: EKVX NSCLC
# NCI/ADR-RES ovarian = test system: NCI/ADR-RES ovarian
# NCI-H460 lung = test system: NCI-H460 lung
# OVCAR-8 ovarian = test system: OVCAR-8 ovarian
# PC-3 prostate = test system: PC-3 prostate
# RPMI-8226 leukemia = test system: RPMI-8226 leukemia
# CAKI-1 renal = test system: CAKI-1 renal
# NCI-H226 lung = test system: NCI-H226 lung
# SK-MEL-2 melanoma = test system: SK-MEL-2 melanoma
# TK-10 renal = test system: TK-10 renal
# SW-620 colon = test system: SW-620 colon
# 786-0 renal = test system: 786-0 renal
# OVCAR-3 ovarian = test system: OVCAR-3 ovarian
# HT29 colon = test system: HT29 colon
# IGROV1 ovarian = test system: IGROV1 ovarian
# LOX IMVI melanoma = test system: LOX IMVI melanoma
# HCT-15 colon = test system: HCT-15 colon
# UO-31 renal = test system: UO-31 renal
# UACC-62 melanoma = test system: UACC-62 melanoma
# ACHN renal = test system: ACHN renal
# T-47D breast = test system: T-47D breast
# A498 renal = test system: A498 renal
# OVCAR-4 ovarian = test system: OVCAR-4 ovarian
# SR leukemia = test system: SR leukemia
# MOLT-4 leukemia = test system: MOLT-4 leukemia
# SN12C renal = test system: SN12C renal
# NCI-H23 lung = test system: NCI-H23 lung
# COLO 205 colon = test system: COLO 205 colon
# BT-549 breast = test system: BT-549 breast
# M14 melanoma = test system: M14 melanoma
# UACC-257 melanoma = test system: UACC-257 melanoma
# OVCAR-5 ovarian = test system: OVCAR-5 ovarian
compound,measurement,setting,value
CC(=O)Nc1cc(F)cc(-c2ccc3[nH]cc(-c4ccccc4)c3n2)c1,GI50,CCRF-CEM leukemia,3.42 µM
same,TGI,CCRF-CEM leukemia,17.9 µM
same,GI50,KM12 colon,1870 nM
same,TGI,KM12 colon,3.56 µM
same,GI50,SK-MEL-5 melanoma,4.07 µM
same,TGI,SK-MEL-5 melanoma,15 µM
same,GI50,A549 NSCLC,3.6 µM
same,TGI,A549 NSCLC,16.7 µM
same,GI50,NCI-H522 lung,1830 nM
same,TGI,NCI-H522 lung,4.11 µM
same,GI50,DU-145 prostate,5.52 µM
same,TGI,DU-145 prostate,17.9 µM
same,GI50,HS 578T breast,5.01 µM
same,TGI,HS 578T breast,47.7 µM
same,GI50,MDA-MB-231 breast,3.46 µM
same,TGI,MDA-MB-231 breast,12.7 µM
same,GI50,U251 CNS,3.73 µM
same,TGI,U251 CNS,16.1 µM
same,GI50,SNB-19 CNS,3.9 µM
same,TGI,SNB-19 CNS,13.9 µM
same,GI50,HOP-62 NSCLC,4.2 µM
same,TGI,HOP-62 NSCLC,17.4 µM
same,GI50,MCF7 breast,2900 nM
same,TGI,MCF7 breast,12.3 µM
same,GI50,SK-OV-3 ovarian,6.84 µM
same,TGI,SK-OV-3 ovarian,21.3 µM
same,GI50,SF-268 CNS,5.12 µM
same,TGI,SF-268 CNS,22 µM
same,GI50,MALME-3M melanoma,3.5 µM
same,TGI,MALME-3M melanoma,12.8 µM
same,GI50,HCC-2998 colon,2110 nM
same,TGI,HCC-2998 colon,4.71 µM
same,GI50,SNB-75 CNS,4.93 µM
same,TGI,SNB-75 CNS,18.1 µM
same,GI50,K-562 leukemia,2790 nM
same,TGI,K-562 leukemia,9.11 µM
same,GI50,SF-539 CNS,2970 nM
same,TGI,SF-539 CNS,10.7 µM
same,GI50,HOP-92 NSCLC,2970 nM
same,TGI,HOP-92 NSCLC,9.63 µM
same,GI50,RXF 393 renal,2500 nM
same,TGI,RXF 393 renal,7.97 µM
same,GI50,HL-60(TB) leukemia,2720 nM
same,TGI,HL-60(TB) leukemia,10.7 µM
same,GI50,SK-MEL-28 melanoma,2430 nM
same,TGI,SK-MEL-28 melanoma,6.13 µM
same,GI50,MDA-MB-435,4.05 µM
same,TGI,MDA-MB-435,15.5 µM
same,GI50,HCT-116 colon,3.33 µM
same,TGI,HCT-116 colon,12 µM
same,GI50,SF-295 CNS,2100 nM
same,TGI,SF-295 CNS,5.16 µM
same,GI50,EKVX NSCLC,4.71 µM
same,TGI,EKVX NSCLC,21.5 µM
same,GI50,NCI/ADR-RES ovarian,3.99 µM
same,TGI,NCI/ADR-RES ovarian,23 µM
same,GI50,NCI-H460 lung,3.37 µM
same,TGI,NCI-H460 lung,14.6 µM
same,GI50,OVCAR-8 ovarian,6.16 µM
same,TGI,OVCAR-8 ovarian,44.3 µM
same,GI50,PC-3 prostate,3.33 µM
same,TGI,PC-3 prostate,16 µM
same,GI50,RPMI-8226 leukemia,3.08 µM
same,TGI,RPMI-8226 leukemia,19.2 µM
same,GI50,CAKI-1 renal,3.32 µM
same,TGI,CAKI-1 renal,12.2 µM
same,GI50,NCI-H226 lung,6.31 µM
same,TGI,NCI-H226 lung,23 µM
same,GI50,SK-MEL-2 melanoma,2460 nM
same,TGI,SK-MEL-2 melanoma,6.8 µM
same,GI50,TK-10 renal,6 µM
same,TGI,TK-10 renal,18.3 µM
same,GI50,SW-620 colon,3.31 µM
same,TGI,SW-620 colon,25.3 µM
same,GI50,786-0 renal,2220 nM
same,TGI,786-0 renal,5.65 µM
same,GI50,OVCAR-3 ovarian,5.08 µM
same,TGI,OVCAR-3 ovarian,17.8 µM
same,GI50,HT29 colon,2210 nM
same,TGI,HT29 colon,5.15 µM
same,GI50,IGROV1 ovarian,5.04 µM
same,TGI,IGROV1 ovarian,21.1 µM
same,GI50,LOX IMVI melanoma,1750 nM
same,TGI,LOX IMVI melanoma,3.39 µM
same,GI50,HCT-15 colon,2080 nM
same,TGI,HCT-15 colon,5.05 µM
same,GI50,UO-31 renal,3.88 µM
same,TGI,UO-31 renal,14.8 µM
same,GI50,UACC-62 melanoma,3.34 µM
same,TGI,UACC-62 melanoma,11.9 µM
same,GI50,ACHN renal,4.08 µM
same,TGI,ACHN renal,14.3 µM
same,GI50,T-47D breast,4.77 µM
same,TGI,T-47D breast,29.1 µM
same,GI50,A498 renal,3.75 µM
same,TGI,A498 renal,12.7 µM
same,GI50,OVCAR-4 ovarian,5.44 µM
same,TGI,OVCAR-4 ovarian,18.6 µM
same,GI50,SR leukemia,2750 nM
same,TGI,SR leukemia,8.4 µM
same,GI50,MOLT-4 leukemia,2260 nM
same,TGI,MOLT-4 leukemia,10.4 µM
same,GI50,SN12C renal,6.7 µM
same,TGI,SN12C renal,21.9 µM
same,GI50,NCI-H23 lung,4.98 µM
same,TGI,NCI-H23 lung,20 µM
same,GI50,COLO 205 colon,2170 nM
same,TGI,COLO 205 colon,4.69 µM
same,GI50,BT-549 breast,4.78 µM
same,TGI,BT-549 breast,17 µM
same,GI50,M14 melanoma,2650 nM
same,TGI,M14 melanoma,7.85 µM
same,GI50,UACC-257 melanoma,2320 nM
same,TGI,UACC-257 melanoma,5.96 µM
same,GI50,OVCAR-5 ovarian,4.92 µM
same,TGI,OVCAR-5 ovarian,22.1 µM
